According to PMC7527053, “Structure of Merkel Cell Polyomavirus Capsid and Interaction with Its Glycosaminoglycan Attachment Receptor” (Journal of Virology, 2020):

Assays:
[1] = target: T1, HPV-16 VLPs (L1- and L2-containing) (Human papillomavirus 16, UniProt P03101); test: STD-NMR; assay type: binding; details: 10 uM VLP, 1 mM ligand, D2O, 283 K; buffer printed as PBS and as 150 mM NaCl, 20 mM KH2PO4 pH 7.4
T1 construct: L1/L2 VLPs produced by the MCPyV VLP procedure (293TT cells) without the ion chromatography step; plasmids pshell16 and p16L1L2; with Minor capsid protein L2

[2] = target: T2, MCPyV VLPs (VP1/VP2 virus-like particles) (Merkel cell polyomavirus, UniProt B0G0W3); test: STD-NMR; assay type: binding; details: 10 uM VLP, 1 mM ligand, 150 mM NaCl, 1 mM CaCl2, D2O, 283 K
T2 construct: untagged icosahedral VLPs of 72 VP1 pentamers; VP1-only VLPs behaved the same; with Minor capsid protein VP2

[3] = target: Merkel cell polyomavirus (MCPyV) major capsid protein VP1, assembled as virus-like particles (Merkel cell polyomavirus (MCC isolate 339)); test: crystal structure; filled VLPs (fVLPs), crystals grown in 0.1 M sodium citrate pH 4.6, 30% MPD, 0.2 M NaCl at 20°C; 3.5 Å
[4] = target: Merkel cell polyomavirus (MCPyV) major capsid protein VP1, assembled as virus-like particles (Merkel cell polyomavirus (MCC isolate 339)); test: nonreducing SDS-PAGE; purified VLPs incubated with 10 mM DTT and/or 50 mM EDTA with 2% SDS for 1 h at ambient temperature; capsid to pentamers

CO[C@H]1O[C@H](COS(=O)(=O)O)[C@@H](O[C@@H]2O[C@@H](C(=O)O)[C@@H](O[C@H]3O[C@H](COS(=O)(=O)O)[C@@H](O[C@@H]4O[C@H](C(=O)O)[C@@H](O[C@H]5O[C@H](COS(=O)(=O)O)[C@@H](O)[C@H](O)[C@H]5NS(=O)(=O)O)[C@H](O)[C@H]4O)[C@H](OS(=O)(=O)O)[C@H]3NS(=O)(=O)O)[C@H](O)[C@H]2OS(=O)(=O)O)[C@H](O)[C@H]1NS(=O)(=O)O [Arixtra, GlcNS6Sα1-4GlcAα1-4GlcNS3S6Sα1-4IdoA2Sα1-4GlcNS6Sα-OMet]
STD-NMR [1]: the HPV-16 VLP Arixtra binding epitope is indistinguishable from the MCPyV VLP Arixtra epitope | STD-NMR ([2]; filled (and empty) VLPs): we observed STD-NMR signals throughout the full length of the pentasaccharide

O=C(O)C1=C[C@H](O)[C@@H](OS(=O)(=O)O)[C@H](O[C@H]2[C@H](O)[C@@H](NS(=O)(=O)O)C(O)O[C@@H]2COS(=O)(=O)O)O1 (some centres unmarked) [HS-dp2, ΔUA2Sα1-4GlcNS6S]
STD-NMR ([2]; VP1-only and VP1/VP2 VLPs): an interaction between MCPyV VLPs and dp2 was unambiguously observed

Merkel cell polyomavirus (MCPyV) major capsid protein VP1, assembled as virus-like particles (natural protein)
stoichiometry N [3]: 360 | stoichiometry N [4]: 5
